Assay results as given in the NIST ThermoML archive (doi:10.1021/je400130b).
Where “and” joins values, the source holds several entries; their conditions need not be identical. Equal entries are not always repeated.

Assay: molar heat capacity at constant pressure
Details: 101.33 kPa, Crystal, Small (less than 1 g) adiabatic calorimetry

O=S(=O)([O-])[O-].[Cu+2].[Cu+2].[Cu+2].[OH-].[OH-].[OH-].[OH-] [copper(II) tetrahydroxide sulfate]
Details | molar heat capacity at constant pressure
4 K | 4.402 J/K/mol
4.276 K | 3.87 J/K/mol
4.321 K | 4.927 J/K/mol
4.467 K | 6.058 J/K/mol
4.5 K | 6.267 J/K/mol
4.571 K | 6.664 J/K/mol
4.751 K | 7.35 J/K/mol
4.944 K | 8.855 J/K/mol and 8.884 J/K/mol
5 K | 9.138 J/K/mol
5.109 K | 9.647 J/K/mol
5.218 K | 10.19 J/K/mol
5.281 K | 10.29 J/K/mol
5.461 K | 10.03 J/K/mol
5.496 K | 9.756 J/K/mol
5.659 K | 8.612 J/K/mol
5.818 K | 7.934 J/K/mol
5.864 K | 7.741 J/K/mol
6 K | 7.452 J/K/mol
6.058 K | 7.363 J/K/mol
6.147 K | 7.235 J/K/mol
6.298 K | 7.044 J/K/mol
6.566 K | 6.796 J/K/mol
6.592 K | 6.689 J/K/mol
6.889 K | 6.159 J/K/mol
7 K | 6.491 J/K/mol
7.099 K | 6.461 J/K/mol
7.18 K | 6.397 J/K/mol
7.46 K | 6.264 J/K/mol
7.635 K | 6.223 J/K/mol
7.743 K | 6.172 J/K/mol
8 K | 6.095 J/K/mol
8.024 K | 6.079 J/K/mol
8.159 K | 6.056 J/K/mol
8.304 K | 6.014 J/K/mol
8.585 K | 5.956 J/K/mol
8.67 K | 5.936 J/K/mol
8.866 K | 5.89 J/K/mol
9 K | 5.868 J/K/mol
9.144 K | 5.841 J/K/mol
9.172 K | 5.855 J/K/mol
9.421 K | 5.784 J/K/mol
9.668 K | 5.798 J/K/mol
9.696 K | 5.748 J/K/mol
9.972 K | 5.754 J/K/mol
10 K | 5.75 J/K/mol
10.16 K | 5.732 J/K/mol
10.63 K | 5.745 J/K/mol
10.93 K | 5.732 J/K/mol
11.68 K | 5.739 J/K/mol
11.98 K | 5.75 J/K/mol
12.74 K | 5.81 J/K/mol
13.03 K | 5.85 J/K/mol
13.78 K | 5.989 J/K/mol
14.06 K | 6.069 J/K/mol
14.8 K | 6.285 J/K/mol
15 K | 6.341 J/K/mol
15.07 K | 6.393 J/K/mol
15.81 K | 6.636 J/K/mol
16.07 K | 6.722 J/K/mol
16.8 K | 6.975 J/K/mol
17.07 K | 7.117 J/K/mol
17.8 K | 7.522 J/K/mol
18.06 K | 7.677 J/K/mol
18.78 K | 8.087 J/K/mol
19.04 K | 8.238 J/K/mol
19.76 K | 8.67 J/K/mol
20 K | 8.85 J/K/mol
20.02 K | 8.833 J/K/mol
21.22 K | 9.779 J/K/mol
21.5 K | 9.988 J/K/mol
23.18 K | 11.26 J/K/mol
23.46 K | 11.52 J/K/mol
25 K | 12.91 J/K/mol
25.15 K | 13.02 J/K/mol
27.12 K | 14.99 J/K/mol
29.09 K | 17.14 J/K/mol
30 K | 18.13 J/K/mol
31.06 K | 19.35 J/K/mol
33.03 K | 21.62 J/K/mol
34.81 K | 23.66 J/K/mol
35 K | 24 J/K/mol
35.01 K | 23.95 J/K/mol
36.98 K | 26.35 J/K/mol
37.09 K | 26.53 J/K/mol
38.96 K | 28.94 J/K/mol
39.07 K | 29.08 J/K/mol
40 K | 30.19 J/K/mol
41.04 K | 31.63 J/K/mol
43.02 K | 34.11 J/K/mol
44.99 K | 36.64 J/K/mol
45 K | 36.59 J/K/mol
46.97 K | 39.09 J/K/mol
48.95 K | 41.56 J/K/mol
50 K | 43.07 J/K/mol
50.93 K | 44.19 J/K/mol
52.91 K | 46.98 J/K/mol
54.89 K | 49.62 J/K/mol
55 K | 49.46 J/K/mol
56.88 K | 51.68 J/K/mol
58.87 K | 53.87 J/K/mol
60 K | 55.63 J/K/mol
60.86 K | 56.7 J/K/mol
62.84 K | 59.19 J/K/mol
64.84 K | 61.5 J/K/mol
65 K | 61.62 J/K/mol
66.82 K | 63.78 J/K/mol
68.81 K | 66.04 J/K/mol
70 K | 67.43 J/K/mol
70.81 K | 68.24 J/K/mol
73.31 K | 71.15 J/K/mol
75 K | 73.06 J/K/mol
76.31 K | 74.53 J/K/mol
79.15 K | 77.5 J/K/mol
79.33 K | 77.85 J/K/mol
80 K | 78.53 J/K/mol
82.35 K | 81.16 J/K/mol
82.87 K | 81.56 J/K/mol
85 K | 83.89 J/K/mol
85.92 K | 84.81 J/K/mol
87.61 K | 86.67 J/K/mol
88.97 K | 88.01 J/K/mol
90 K | 89.13 J/K/mol
91.38 K | 90.45 J/K/mol
92.02 K | 91.18 J/K/mol
94.44 K | 93.68 J/K/mol
95 K | 94.27 J/K/mol
95.08 K | 94.4 J/K/mol
97.53 K | 96.77 J/K/mol
98.16 K | 97.48 J/K/mol
100 K | 99.3 J/K/mol
100.62 K | 99.85 J/K/mol
101.24 K | 100.56 J/K/mol
103.71 K | 102.89 J/K/mol
104.33 K | 103.67 J/K/mol
106.81 K | 105.92 J/K/mol
107.42 K | 106.61 J/K/mol
109.92 K | 109.04 J/K/mol
110 K | 109.1 J/K/mol
110.53 K | 109.61 J/K/mol
113.05 K | 112.01 J/K/mol
113.64 K | 112.58 J/K/mol
116.17 K | 114.94 J/K/mol
116.76 K | 115.5 J/K/mol
119.31 K | 118.07 J/K/mol
119.89 K | 118.47 J/K/mol
120 K | 118.6 J/K/mol
122.46 K | 120.84 J/K/mol
123.02 K | 121.58 J/K/mol
125.61 K | 123.78 J/K/mol
126.17 K | 124.44 J/K/mol
128.76 K | 126.79 J/K/mol
129.34 K | 127.55 J/K/mol
130 K | 128.1 J/K/mol
131.93 K | 129.76 J/K/mol
132.5 K | 130.3 J/K/mol
135.11 K | 132.59 J/K/mol
135.67 K | 133.23 J/K/mol
138.3 K | 135.82 J/K/mol
138.84 K | 136.39 J/K/mol
140 K | 137.4 J/K/mol
141.49 K | 138.48 J/K/mol
142.03 K | 139.28 J/K/mol
